In brackets after ≈: the same amount, converted by molar mass.
Columns and labels:
Type in all cases: functional
[1] = test system: Candida albicans; test: Antifungal activity against Candida albicans Berkout KCCM 50235 after 1 day by twofold broth dilution method; settings: Berkout KCCM 50235, 24 h
[2] = test system: Candida tropicalis; test: Antifungal activity against Candida tropicalis Berkout KCCM 50662 after 1 day by twofold broth dilution method; settings: Berkout KCCM 50662, 24 h
[3] = test system: Pichia kudriavzevii; test: Antifungal activity against Candida krusei Berkout KCCM 11655 after 1 day by twofold broth dilution method; settings: Berkout KCCM 11655, 24 h
[4] = test system: Cryptococcus neoformans; test: Antifungal activity against Cryptococcus neoformans KCCM 50564 after 1 day by twofold broth dilution method; settings: KCCM 50564, 24 h
[5] = test system: Aspergillus niger; test: Antifungal activity against Aspergillus niger KCTC 1231 after 2 days by twofold broth dilution method; settings: KCTC 1231, 48 h
[6] = test system: Aspergillus flavus; test: Antifungal activity against Aspergillus flavus KCCM 11899 after 2 days by twofold broth dilution method; settings: KCCM 11899, 48 h

Row | Compound | MIC [1] | MIC [2] | MIC [3] | MIC [4] | MIC [5] | MIC [6]
1 | COC(=O)c1cc2c(s1)C(=O)c1c(C(C)=O)c3cc(Cl)ccn3c1C2=O | 50 µg/mL (≈ 129 µM) | 25 µg/mL (≈ 64.5 µM) | 50 µg/mL (≈ 129 µM) | 12.5 µg/mL (≈ 32.2 µM) | 6.3 µg/mL (≈ 16.2 µM) | 12.5 µg/mL (≈ 32.2 µM)
2 | COC(=O)c1cc2c(s1)C(=O)c1c(C(C)=O)c3ccc(C)cn3c1C2=O | 12.5 µg/mL (≈ 34 µM) | 25 µg/mL (≈ 68 µM) | 50 µg/mL (≈ 136 µM) | 12.5 µg/mL (≈ 34 µM) | 6.3 µg/mL (≈ 17.1 µM) | 12.5 µg/mL (≈ 34 µM)
3 | CCc1ccc2c(C(C)=O)c3c(n2c1)C(=O)c1cc(C(=O)OC)sc1C3=O | 12.5 µg/mL (≈ 32.8 µM) | 50 µg/mL (≈ 131 µM) | 50 µg/mL (≈ 131 µM) | 6.3 µg/mL (≈ 16.5 µM) | 12.5 µg/mL (≈ 32.8 µM) | 6.3 µg/mL (≈ 16.5 µM)
4 | COC(=O)c1cc2c(s1)C(=O)c1c(C(C)=O)c3cc(C#N)ccn3c1C2=O | 25 µg/mL (≈ 66.1 µM) | 25 µg/mL (≈ 66.1 µM) | 25 µg/mL (≈ 66.1 µM) | 6.3 µg/mL (≈ 16.7 µM) | 12.5 µg/mL (≈ 33 µM) | 12.5 µg/mL (≈ 33 µM)
5 | COC(=O)c1cc2c(s1)C(=O)c1c(C(C)=O)c3ccc(F)cn3c1C2=O | 50 µg/mL (≈ 135 µM) | 25 µg/mL (≈ 67.3 µM) | 25 µg/mL (≈ 67.3 µM) | 50 µg/mL (≈ 135 µM) | 50 µg/mL (≈ 135 µM) | 50 µg/mL (≈ 135 µM)
6 | COC(=O)c1cc2c(s1)C(=O)c1c(C(C)=O)c3ccc(Cl)cn3c1C2=O | 12.5 µg/mL (≈ 32.2 µM) | 3.2 µg/mL (≈ 8.25 µM) | 6.3 µg/mL (≈ 16.2 µM) | 3.2 µg/mL (≈ 8.25 µM) | 12.5 µg/mL (≈ 32.2 µM) | 25 µg/mL (≈ 64.5 µM)
7 | COC(=O)c1cc2c(s1)C(=O)c1c(C(C)=O)c3ccc(Br)cn3c1C2=O | 6.3 µg/mL (≈ 14.6 µM) | 12.5 µg/mL (≈ 28.9 µM) | 6.3 µg/mL (≈ 14.6 µM) | 1.6 µg/mL (≈ 3.7 µM) | 6.3 µg/mL (≈ 14.6 µM) | 12.5 µg/mL (≈ 28.9 µM)
8 | COC(=O)c1cc2c(s1)C(=O)c1c(C(=O)OC)c3ccccn3c1C2=O | 50 µg/mL (≈ 135 µM) | 25 µg/mL (≈ 67.7 µM) | 50 µg/mL (≈ 135 µM) | 12.5 µg/mL (≈ 33.8 µM) | 25 µg/mL (≈ 67.7 µM) | 12.5 µg/mL (≈ 33.8 µM)
9 | CCOC(=O)c1c2c(n3ccccc13)C(=O)c1cc(C(=O)OC)sc1C2=O | 50 µg/mL (≈ 130 µM) | 12.5 µg/mL (≈ 32.6 µM) | 12.5 µg/mL (≈ 32.6 µM) | 50 µg/mL (≈ 130 µM) | 12.5 µg/mL (≈ 32.6 µM) | 50 µg/mL (≈ 130 µM)
10 | CCOC(=O)c1c2c(n3cc(C)ccc13)C(=O)c1cc(C(=O)OC)sc1C2=O | 25 µg/mL (≈ 62.9 µM) | 12.5 µg/mL (≈ 31.5 µM) | 25 µg/mL (≈ 62.9 µM) | 12.5 µg/mL (≈ 31.5 µM) | 25 µg/mL (≈ 62.9 µM) | 6.3 µg/mL (≈ 15.9 µM)
11 | CCOC(=O)c1c2c(n3ccc(OC)cc13)C(=O)c1cc(C(=O)OC)sc1C2=O | 50 µg/mL (≈ 121 µM) | 50 µg/mL (≈ 121 µM) | 100 µg/mL (≈ 242 µM) | 50 µg/mL (≈ 121 µM) | 100 µg/mL (≈ 242 µM) | 50 µg/mL (≈ 121 µM)
12 | CCOC(=O)c1c2c(n3ccc(C#N)cc13)C(=O)c1cc(C(=O)OC)sc1C2=O | 12.5 µg/mL (≈ 30.6 µM) | 12.5 µg/mL (≈ 30.6 µM) | 50 µg/mL (≈ 122 µM) | 25 µg/mL (≈ 61.2 µM) | 3.2 µg/mL (≈ 7.84 µM) | 50 µg/mL (≈ 122 µM)
13 | CCOC(=O)c1c2c(n3cc(F)ccc13)C(=O)c1cc(C(=O)OC)sc1C2=O | 6.3 µg/mL (≈ 15.7 µM) | 50 µg/mL (≈ 125 µM) | 12.5 µg/mL (≈ 31.1 µM) | 12.5 µg/mL (≈ 31.1 µM) | 50 µg/mL (≈ 125 µM) | 12.5 µg/mL (≈ 31.1 µM)
14 | CCOC(=O)c1c2c(n3cc(Cl)ccc13)C(=O)c1cc(C(=O)OC)sc1C2=O | 6.3 µg/mL (≈ 15.1 µM) | 6.3 µg/mL (≈ 15.1 µM) | 6.3 µg/mL (≈ 15.1 µM) | 25 µg/mL (≈ 59.8 µM) | 6.3 µg/mL (≈ 15.1 µM) | 25 µg/mL (≈ 59.8 µM)
15 | CCOC(=O)c1c2c(n3cc(Br)ccc13)C(=O)c1cc(C(=O)OC)sc1C2=O | 3.2 µg/mL (≈ 6.92 µM) | 1.6 µg/mL (≈ 3.46 µM) | 12.5 µg/mL (≈ 27 µM) | 1.6 µg/mL (≈ 3.46 µM) | 3.2 µg/mL (≈ 6.92 µM) | 1.6 µg/mL (≈ 3.46 µM)
16 | COC(=O)c1cc2c(OC)ccc(OC)c2s1 | 100 µg/mL (≈ 396 µM) | > 100 µg/mL | 50 µg/mL (≈ 198 µM) | > 100 µg/mL | 100 µg/mL (≈ 396 µM) | 100 µg/mL (≈ 396 µM)
17 | COC(=O)c1cc2c(s1)C(=O)C(Cl)=C([n+]1ccc(Cl)cc1)C2=O.[Cl-] | 12.5 µg/mL | 25 µg/mL | 50 µg/mL | 12.5 µg/mL | 3.2 µg/mL | 12.5 µg/mL
18 | COC(=O)c1cc2c(s1)C(=O)C(Cl)=C([n+]1ccc(C#N)cc1)C2=O.[Cl-] | 25 µg/mL | 50 µg/mL | 50 µg/mL | 6.3 µg/mL | 3.2 µg/mL | 6.3 µg/mL
19 | CCc1ccc[n+](C2=C(Cl)C(=O)c3sc(C(=O)OC)cc3C2=O)c1.[Cl-] | 50 µg/mL | 25 µg/mL | 50 µg/mL | 12.5 µg/mL | 6.3 µg/mL | 12.5 µg/mL
20 | COC(=O)c1cc2c(s1)C(=O)C(Cl)=C([n+]1ccc(OC)cc1)C2=O.[Cl-] | 100 µg/mL | 50 µg/mL | 50 µg/mL | 50 µg/mL | 100 µg/mL | 50 µg/mL
21 | COC(=O)c1cc2c(s1)C(=O)C(Cl)=C([n+]1cccc(Cl)c1)C2=O.[Cl-] | 3.2 µg/mL | 1.6 µg/mL | 3.2 µg/mL | 50 µg/mL | 3.2 µg/mL | 3.2 µg/mL
22 | COC(=O)c1cc2c(s1)C(=O)C(Cl)=C([n+]1cccc(Br)c1)C2=O.[Cl-] | 50 µg/mL | 50 µg/mL | 25 µg/mL | 50 µg/mL | 12.5 µg/mL | 50 µg/mL
23 | OC(Cn1cncn1)(Cn1cncn1)c1ccc(F)cc1F [FLUCONAZOLE] | 50 µg/mL (≈ 163 µM) | 3.2 µg/mL (≈ 10.4 µM) | 25 µg/mL (≈ 81.6 µM) | 6.3 µg/mL (≈ 20.6 µM) | 6.3 µg/mL (≈ 20.6 µM) | 25 µg/mL (≈ 81.6 µM)
24 | Nc1nc(=O)[nH]cc1F [FLUCYTOSINE] | 3.2 µg/mL (≈ 24.8 µM) | 6.3 µg/mL (≈ 48.8 µM) | 6.3 µg/mL (≈ 48.8 µM) | 6.3 µg/mL (≈ 48.8 µM) | 6.3 µg/mL (≈ 48.8 µM) | 25 µg/mL (≈ 194 µM)

— ChEMBL document CHEMBL2069251, “Synthesis and antifungal activity of 1-thia-4b-aza-cyclopenta[b]fluorene-4,10-diones” (2012)
